Experiments:
Hs20S β5c = Hs20S β5c (Homo sapiens, UniProt P20618+P28074); assay: Hs20S β5c activity, Ac-WLA-AMC cleavage with human PA28αβ; assay type: biochemical
Pf cultures = conditions: ref [9]; cited from earlier work

More potent as inhibitor of Hsβ5c activity than of Pfβ5 activity (Hs20S β5c): twofold
Compound: CC(C)C[C@H](NC(=O)[C@H](Cc1ccccc1)NC(=O)c1cnccn1)B(O)O [Bortezomib, bortezomib, reference compound]
Synergy with dihydroxyartemisinin (DHA) (Pf cultures): strong synergy

— article PMC8488693 (Proceedings of the National Academy of Sciences of the …, 2021)
